Experimental findings from article PMC4506092, “Utilizing Chemical Genomics to Identify Cytochrome b as a Novel Drug Target for Chagas Disease” (PLoS Pathogens, 2015) are described below.

Where “and” joins values, the source holds several entries; their conditions need not be identical. Equal values may be shown once. Read-outs that look alike come from different tables or passages of the source. Bounds are passed on as bounds.

As usually defined, the EC50 is the concentration giving half of the maximal effect. For orientation: IC50 means the point on the concentration scale where inhibition reaches its midpoint.

Assay [1] deals with S. cerevisiae strain NF7061. Put plainly: S. cerevisiae susceptibility assay, YPG (glycerol) medium. It is filed as cell-based, Saccharomyces cerevisiae. Particulars: 48 hours. The protocol:
(§1) The minimal inhibitory concentrations (MIC) of the compounds for inhibition of S. cerevisiae drug pump knock-out strain NF7061 (MATa his3Δ 1; leu2Δ 0; met15Δ 0; ura3Δ 0; snq2::KanMX; pdr5::KanMX; pdr1::NAT1; pdr3::KanMX; yap1::NAT1; pdr2::LEU2; yrm1::MET; yor1::LYS2) were determined by a modification of the microdilution technique described elsewhere. Briefly, two-fold dilutions of the compound solution in DMSO were made. They were added to each well of 96-well assay plate containing 200 μL per well of either YPD (1% Difco Yeast Extract, 2% Difco Bacto Peptone and 2% Dextrose) or YPG (3% of glycerol in replacement of 2% Dextrose in YP) medium. Early stationary yeast NF7061 cells grown in either medium were collected and resuspended to 2 × 10^5 cells / mL. Ten microliters of the yeast cell suspension were inoculated to each well of the plates containing medium and compound to achieve a final inoculum of approximately 10^4 CFU / mL. The plates were incubated at 30°C for 24 hours (containing YPD) or 48 hours (containing YPG).

In assay [2] the test system is T. cruzi trypomastigotes (wild-type). Put plainly: T. cruzi trypomastigote viability assay (CellTiter-Glo), wild-type. To be noted: 48-hour incubation, read-out: Trypomastigote EC50, WT. It counts as cell-based, Trypanosoma cruzi. As for the experimental part:
To assess compound efficacy on trypomastigotes, parasites (30 μL; 2 × 10^6 trypomastigotes / mL) were added to 384-well plates containing 10 μL of RPMI-1640 without phenol red (Invitrogen) and supplemented with 10% FBS and 100 IU penicillin / 100 µg streptomycin per mL, and then treated with compounds (0.2% DMSO final concentration). Following a 48-hour incubation period, viability was assessed using the CellTiter-Glo Luminescent Cell Viability Assay (Promega).

For assay [3], the system named is T. cruzi epimastigote respiration (GNF7686-resistant, DR). Put plainly: T. cruzi epimastigote respiration (oxygen consumption, MitoXpress-Xtra), GNF7686-resistant. It counts as cell-based, Trypanosoma cruzi. To be noted: for IC50: Trypanosoma cruzi, intact epimastigotes. The protocol:
(§2) GNF7686 and cytochrome b inhibitors (0.2% DMS0 final concentration) were added to 384-well assay plates containing 20 μL of assay buffer (250 mM sucrose, 15 mM KCl, 5 mM MgCl2, 1 mM EGTA, 30 mM K2HPO4, pH 7.4) and allowed to dissolve for two hours. Meanwhile, T. cruzi epimastigotes were harvested (800 × g for 5 min at 4°C), washed twice with buffer A (10 mM Tris-HCl, pH = 7.4, 0.23 M mannitol, 0.07 M sucrose, 0.2 mM EDTA, 0.2% bovine serum albumin, 0.5 mM phenylmethanesulfonyl fluoride), and finally resuspended in buffer A at a final concentration of 150 × 10^6 epimastigotes / mL. Next, 20 μL of T. cruzi epimastigote suspension (3 x 10^6 parasites) was added to each sample well, and then 15 μL of MitoXpress-Xtra probe (Cayman Chemicals) was added (final assay volume of 60 μL). Probe phosphorescence is quenched in the presence of oxygen and is inversely proportional to the amount of oxygen present in the solution. HS mineral oil (20 μL, Cayman Chemicals) was added to wells to prevent oxygen exchange between the assay buffer and air. Blank wells containing assay buffer without parasites, corresponding compound, and mineral oil were prepared in parallel and values were subtracted from sample values to specifically measure changes in oxygen concentration caused by parasite respiration. All sample and blank wells were prepared in duplicate. The assay plate was transferred to a Gemini XPS fluorescence plate reader (Molecular Devices) and read at 3 minute intervals at excitation and emission wavelengths of 380 nm and 650 nm, respectively, for 30 minutes at 37°C. The slope for the linear portion of time course of fluorescence increase (rate of oxygen consumption) was calculated after subtraction of blank well values. Obtained slope values were normalized to the slope obtained for 0.2% DMSO, and plotted against the corresponding compound concentration for half maximal inhibitory concentration (IC50) value determination.

The subject of assay [4] is S. cerevisiae strain NF7061. Nature of the assay: S. cerevisiae susceptibility assay, YPD (dextrose) medium. It is filed as cell-based, Saccharomyces cerevisiae. Particulars: 24 hours. The protocol: as §1
Assay [5] deals with T. cruzi epimastigotes (GNF7686-resistant, DR). Nature of the assay: T. cruzi epimastigote growth assay (CellTiter-Glo), GNF7686-resistant. It is filed as cell-based, Trypanosoma cruzi. The protocol:
(§3) To determine compound activity on the T. cruzi epimastigote form, epimastigotes (20 μL; 2.5 × 10^5 parasites / mL) were added to 384-well assay plates containing 20 μL of LIT media with pre-dispensed compounds (0.2% DMSO final concentration) and incubated for seven days at 26°C / 0% CO2. Parasite viability was assessed at the end of this incubation period using the CellTiter-Glo Luminescent Cell Viability Assay (Promega). Luminescence as a measure of parasite viability was measured on the EnVision plate reader.
Resistant epimastigotes were cloned by the limiting dilution technique.
In general terms: ATP-based viability assays read luminescence as a measure of living cells.

For assay [6], the system named is T. cruzi epimastigotes (wild-type). Nature of the assay: T. cruzi epimastigote growth assay (CellTiter-Glo), wild-type. It is filed as cell-based, Trypanosoma cruzi. To be noted: for EC50: wild-type T. cruzi, seven days, read-out: Epimastigote EC50, WT. As for the experimental part:
as §3

Assay [7] has as its system T. cruzi epimastigote respiration (wild-type). Put plainly: T. cruzi epimastigote respiration (oxygen consumption, MitoXpress-Xtra), wild-type. It counts as cell-based. Particulars: Trypanosoma cruzi; intact epimastigotes. The protocol: as §2, with “HS mineral oil (20 μL, Cayman Chemicals) was added to wells to prevent oxygen exchange between the assay buffer and air. Blank wells containing assay buffer without parasites, corresponding compound, and mineral oil were prepared in parallel and values were subtracted from sample values to specifically measure changes in oxygen concentration caused by parasite respiration. All sample and blank wells were prepared in duplicate.” left out, “Obtained slope values were normalized to the slope obtained for 0.2% DMSO, and plotted against the corresponding compound concentration for half maximal inhibitory concentration (IC50) value determination.” left out

Assay [8] has as its system T. cruzi intracellular amastigotes (wild-type). Put plainly: T. cruzi intracellular amastigote efficacy assay in NIH/3T3 cells, wild-type strain. Particulars: Trypanosoma cruzi, NIH3T3, intracellular amastigotes in NIH/3T3, 48-hour treatment, read-out: Amastigote EC50, WT. It is filed as cell-based. As for the experimental part:
To determine compound efficacy on T. cruzi intracellular amastigotes, NIH/3T3 cells were seeded (1,000 cells / well, 40 μL) into microscopy-grade, clear bottom, 384-well plates (Greiner) in RPMI-1640 medium containing 5% heat-inactivated fetal bovine serum and 100 IU penicillin / 100 μg streptomycin per mL. Plates were incubated overnight at 37°C / 5% CO2. Cells were infected with T. cruzi trypomastigotes at a multiplicity of infection (MOI) of 10 for the wild-type strain, and 20 for the GNF7686-resistant mutant strain. After six hours of infection (at 37°C / 5% CO2), the plates were washed by aspirating the medium and replacing with fresh screening medium to remove remaining extracellular trypomastigotes. The plates with infected cells were incubated overnight (37°C / 5% CO2) and compounds dissolved in DMSO were added to plate wells on the following day (0.2% DMSO final concentration). […] The plates were then scanned using the Evotec Opera High Content Screening System (Perkin Elmer) and amastigote proliferation was assessed by counting parasites within the 3T3 cells using CellProfiler version 2.1.0 cell image analysis software. […]

Where [9] appears, read: Saccharomyces cerevisiae, NF7061, MIC visual growth inhibition screen.
[10] abbreviates: Trypanosoma cruzi, 168 h, GNF7686-resistant T. cruzi culture, seven days, read-out: Epimastigote EC50, DR.
The mark [11] stands for this setting: MIC visual growth inhibition screen.

`CCCCCC[C@H]1C(=O)O[C@H](C)[C@H](NC(=O)c2cccc(NC=O)c2O)C(=O)O[C@@H](C)[C@@H]1OC(=O)CC(C)C` [Antimycin A]: the EC50 in assay [1] (setting [9]) is under 2 nM; in assay [2] (Trypanosoma cruzi) it was 200 ± 40 nM; in assay [4] (setting [9]) it was 5 µM; in assay [5] (setting [10]), 1800 ± 210 nM; in assay [6] (Trypanosoma cruzi, 168 h), 46 ± 10 nM. Besides, in assay [3], the “Loss of potency on respiration, GNF7686-resistant vs wild-type” value is on record as ~ 7 fold. Besides, the IC50 in assay [3] worked out at 270 nM; in assay [7], 40 nM. In addition, the “Shift of epimastigote EC50, GNF7686-resistant vs wild-type” value in assay [5] is given as 40 fold.
For the compound `O=C(Cn1ccnc1[N+](=O)[O-])NCc1ccccc1` [Benznidazole], the EC50 in assay [1] (setting [9]) was over 40000 nM; in assay [2] (Trypanosoma cruzi), 13000 ± 1800 nM; in assay [8] it was 1400 ± 170 nM; in assay [4] (setting [9]) it was over 40 µM; in assay [5] (setting [10]), 6700 ± 600 nM; in assay [6] (Trypanosoma cruzi, 168 h) it was 5500 ± 150 nM.
As for `CCc1c(C)c(C#N)c2nc3ccccc3n2c1O` [GNF7686], the EC50 is 5000 nM in assay [1] (setting [9]); 710 ± 160 nM in assay [2] (Trypanosoma cruzi); 150 ± 30 nM in assay [8]; over 40 µM in assay [4] (setting [9]); 730 ± 40 nM in assay [5] (setting [10]); about 1000 nM in assay [5] (Trypanosoma cruzi, epimastigote clones, read-out: EC50 of three clones isolated from the GNF7686-resistant culture). Also, the EC50 in assay [6] (Trypanosoma cruzi, 168 h) is 160 ± 20 nM. In addition, the IC50 in assay [3] was found to be 5200 nM; in assay [7], 210 nM. Moreover, the “Shift of epimastigote EC50, GNF7686-resistant vs wild-type” value in assay [5] was ~ 5 fold and ~ 4 fold. Besides, the “EC20 value on T. cruzi epimastigotes” value in assay [6] (starting concentration of resistance selection) was found to be 0.01 µM.
As for `CO/C(=C/C(N)=O)[C@H](C)[C@H](/C=C/c1csc(-c2csc([C@@H](C)/C=C/C=C/C(C)C)n2)n1)OC` [Myxothiazol], the EC50 in assay [1] (setting [11]) came to 70 ± 10 nM; in assay [2], 2900 ± 480 nM; in assay [4] (setting [11]) it was 30 ± 10 µM; in assay [5] (GNF7686-resistant T. cruzi culture, seven days, read-out: Epimastigote EC50, DR), 430 ± 80 nM; in assay [6], 490 ± 50 nM.
Regarding `CO\C=C(C(=O)OC)/C(C)=C\C=C\c1ccccc1` [Strobilurin], the EC50 in assay [1] (setting [9]) was 100 ± 20 nM; in assay [2] (Trypanosoma cruzi), 1700 ± 410 nM; in assay [4] (setting [9]), over 40 µM; in assay [5] (setting [10]) it was 340 ± 10 nM; in assay [6] (Trypanosoma cruzi, 168 h), 590 ± 130 nM.
